Source: PubChem BioAssay AID1648 (Sanford-Burnham Center for Chemical Genomics, 2009)
Active and inactive are the calls of the source. The rule behind the calls is not given here.

Target: Serine/threonine-protein kinase mTOR (Homo sapiens) (UniProt P42345)
Assay: binders of mTOR FRB domain, biophysical, NMR (AID 1648)
Conditions: NMR binding to FRB domain, chemical shift

Serine/threonine-protein kinase mTOR (Homo sapiens), sequence (P42345 2015-2114): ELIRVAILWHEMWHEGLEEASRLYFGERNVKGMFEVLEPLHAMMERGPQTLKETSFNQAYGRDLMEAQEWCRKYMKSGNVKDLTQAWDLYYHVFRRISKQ

SMILES | Kd
Cc1nc(-c2ccc(NS(C)(=O)=O)cc2)cs1 | > 4 mM (inactive)
Cc1nnc(Nc2ccc(S(N)(=O)=O)cc2)[nH]c1=O | > 4 mM (inactive)
CC(=O)C1=C(O)C(=O)NC1c1ccccc1 (stereo not drawn) | > 4 mM (inactive)
O=C1CSC(=Nc2ccc(F)cc2)N1 | > 4 mM (inactive)
Cc1cc(NC(=O)c2ccc3c(c2)OCO3)no1 | > 4 mM (inactive)
COc1ccc2c(c1)OC[C@@H](Cc1ccc(OC)c(OC)c1)[C@@H]2O | > 4 mM (inactive)
CC1=C(CCC(=O)O)c2cc3nc(cc4[nH]c(cc5[nH]c(cc1n2)c(C)c5C(C)O)c(C)c4C(C)O)C(C)=C3CCC(=O)O (stereo not drawn) | > 4 mM (inactive)
O=C(O)CCCCCCCC(=O)O | > 4 mM (inactive)
Cc1occc1C(=O)N1CCC2(CC1)OCCO2 | > 4 mM (inactive)
O=c1c2ccccc2[nH]c2ncccc12 | > 4 mM (inactive)
CN(C)c1ccc(N2C(=O)CCC2=O)cc1 | > 4 mM (inactive)
NCc1nnnn1-c1ccccc1 | > 4 mM (inactive)
NC(=O)CSc1nnc2ccc(-c3ccccn3)nn12 | > 4 mM (inactive)
C(=N\c1nccs1)/c1cccnc1 | > 4 mM (inactive)
CC(C)(C)c1cc(CN)c(C(=O)O)o1 | > 4 mM (inactive)
S=C(NC1CC1)NN1CCOCC1 | > 4 mM (inactive)
O=C1C=C(Nc2ccc(O)cc2)c2ccccc2C1=O | > 4 mM (inactive)
Nc1ncnc2c1ncn2C1C[C@H](O)[C@@H](CO)O1 (stereo partly drawn) | > 4 mM (inactive)
O=C(NCc1ccco1)c1nc2ncccn2n1 | > 4 mM (inactive)
COc1ccc(C(N)=O)cc1N | > 4 mM (inactive)
Cc1nc2ccc(C(=O)O)cc2[nH]1 | > 4 mM (inactive)
Cc1cc(C(=O)Nc2ccc3c(c2)OCCO3)c(C)o1 | > 4 mM (inactive)
O=c1[nH]c(O)c(C=NCc2cccs2)c(=O)[nH]1 | > 4 mM (inactive)
O=C1Nc2ccccc2C1C1(O)C(=O)Nc2ccc(F)cc21 (stereo not drawn) | > 4 mM (inactive)

SMILES | Kd
Cc1ccc(C)n1/N=C1\NC(=O)CS1 | > 4 mM (inactive)
NCCc1nc2ccccc2[nH]1 | > 4 mM (inactive)
COc1ccc(-c2cc(=O)c3c(O)cc(O)c(-c4cc(-c5cc(=O)c6c(O)cc(O)cc6o5)ccc4OC)c3o2)cc1 | > 4 mM (inactive)
CC(=O)c1cccc(NC2=NCC(C)(C)S2)c1 | > 4 mM (inactive)
CCC(=O)Nc1ccc(-c2nn3c(C)nnc3s2)cc1 | > 4 mM (inactive)
COc1ccccc1Nc1nncc(=O)[nH]1 | > 4 mM (inactive)
c1cncc(Nc2nc(-c3cccnc3)cs2)c1 | > 4 mM (inactive)
COC(=O)Nc1nc2c(C)cccc2s1 | > 4 mM (inactive)
COC(=O)C1=C(C)N(c2cccc(C(C)=O)c2)C(=O)C1 | > 4 mM (inactive)
COc1cc(-c2coc3cc(O[C@@H]4O[C@H](CO)[C@@H](O)[C@H](O)[C@H]4O)c(OC)c(O)c3c2=O)cc(O)c1OC | > 4 mM (inactive)
COC(=O)c1cc(-c2c(C)nn(-c3ccccc3)c2C)n[nH]1 | > 4 mM (inactive)
O=C1NC(=S)S/C1=C/c1ccncc1 | > 4 mM (inactive)
CC(C)C1COc2cc3oc(=O)ccc3cc2O1 (stereo not drawn) | > 4 mM (inactive)
O=C(O)c1cccc2nsnc12 | > 4 mM (inactive)
O=C(C1CCCCC1)N1CCN(c2ccccc2F)CC1 | > 4 mM (inactive)
O=C(O)Cc1c[nH]c2ccccc12 | > 4 mM (inactive)
COc1cc(O)c(C(C)=O)c(OC)c1 | > 4 mM (inactive)
c1ccc(SCc2nc(-c3ccncc3)no2)cc1 | > 4 mM (inactive)
O=C(c1ccccc1F)N1CCN(c2ccccc2)CC1 | > 4 mM (inactive)
CN1C2CC(OC(=O)[C@H](CO)c3ccccc3)C[C@H]1[C@H]1OC21 (stereo partly drawn) | > 4 mM (inactive)
CC12CCC3C(CC3(C)C)C(C)(CCC1=O)O2 (stereo not drawn) | > 4 mM (inactive)
Cc1nc(CC(=O)O)c(-c2ccccc2)s1 | > 4 mM (inactive)
Cn1cnc2c(cnn2-c2ccccc2)c1=O | > 4 mM (inactive)
c1cncc(Nc2nc(-c3ccncc3)cs2)c1 | > 4 mM (inactive)

SMILES | Kd
COCC(=O)Nc1nc2ccc(C)cc2s1 | > 4 mM (inactive)
O=C1NC(=O)C2C3C=CC(O3)C12 (stereo not drawn) | > 4 mM (inactive)
Cc1cc(=O)n2ccc(CN3CCOCC3)c(O)c2n1 | > 4 mM (inactive)
Nc1nc(-c2ccncc2)cs1 | > 4 mM (inactive)
Cc1onc(-c2ccccc2)c1CO | > 4 mM (inactive)
Cc1nc2sc3c(c2c(=N)n1N)CC(C)(C)OC3 | > 4 mM (inactive)
O=C1CSC(=O)N1CN1CCOCC1 | > 4 mM (inactive)
CC(C)CC(=O)NC1CCSC1=O (stereo not drawn) | > 4 mM (inactive)
Nc1ccc(S(=O)(=O)N2CCCCC2)cc1 | > 4 mM (inactive)
O=C(NCc1cccs1)c1nn2cccnc2c1Cl | > 4 mM (inactive)
CC1CCc2cc(F)ccc2N1C(=O)c1ccc(=O)[nH]n1 (stereo not drawn) | > 4 mM (inactive)
CN(C)S(=O)(=O)c1ccccc1C#N | > 4 mM (inactive)
Clc1ccccc1OCCn1ccnc1 | > 4 mM (inactive)
O=c1/c(=C\c2cccnc2)sc2nc3ccccc3n12 | > 4 mM (inactive)
Nc1ncnc(NCCOCCO)c1[N+](=O)[O-] | > 4 mM (inactive)
O=C(O)CCC(=O)NCc1cccnc1 | > 4 mM (inactive)
COc1c(O)cccc1O | > 4 mM (inactive)
CN1CCN(c2nc3c(c(=O)[nH]2)CCCC3)CC1 | > 4 mM (inactive)
O=C(O)C1CNc2ccccc2O1 (stereo not drawn) | > 4 mM (inactive)
COc1ccc2c(c1)O[C@@H]1COc3cc(OC)c(OC)cc3[C@@H]1C2=O | > 4 mM (inactive)
COC(=O)C[C@H]1C(C)(C)C(=O)[C@@H]2CC3=C4CC(=O)O[C@@H](c5ccoc5)[C@]4(C)CCC3C1(C)C2=O (stereo partly drawn) | > 4 mM (inactive)
Cc1cc(O)cc(=O)o1 | > 4 mM (inactive)
Cc1nc(N2CCOCC2)[nH]c(=O)c1C | > 4 mM (inactive)
O=C(O)CSc1cccc2cccnc12 | > 4 mM (inactive)

SMILES | Kd
NS(=O)(=O)c1ccc(NC(=O)c2cccs2)cc1 | > 4 mM (inactive)
CC(=O)Nc1cnn(Cc2ccc(Br)cc2)c1 | > 4 mM (inactive)
CC1(C)Cc2cccc(C(=O)O)c2O1 | > 4 mM (inactive)
Clc1ccccc1OCc1nc(-c2ccccn2)no1 | > 4 mM (inactive)
CCN1CC2(C)CC[C@H](OC)[C@]34C2[C@H](O)C2(OCO[C@@]25C[C@H](OC)[C@H]2C[C@]3(O)C5[C@H]2O)C14 | > 4 mM (inactive)
Cn1nnc2c(Cl)ncnc21 | > 4 mM (inactive)
CC(=O)Oc1c2c(c3c(c1CC=C(C)C)O[C@]14C(=C[C@@H]5CC1C(C)(C)OC4(C/C=C(\C)C(=O)O)C5=O)C3=O)OC(C)(CCC=C(C)C)C=C2 (stereo partly drawn) | > 4 mM (inactive)
NC(=O)c1oc2ccccc2c1N | > 4 mM (inactive)
CS(=O)(=O)NN=C1CCCCC1 | > 4 mM (inactive)
OCc1ccc(-c2ccccn2)s1 | > 4 mM (inactive)
COCc1c(CN)cnc(C)c1N | > 4 mM (inactive)
O=c1cc(CO)oc(CN2CCCCC2)c1O | > 4 mM (inactive)
Cc1ccc(C(O)c2nccn2C)o1 (stereo not drawn) | > 4 mM (inactive)
OCCNC(=S)Nc1ccc(F)cc1 | > 4 mM (inactive)
CCOc1ccc(-c2n[nH]c(=S)n2C)cc1 | > 4 mM (inactive)
NC(=S)N1CCC(c2ccccc2)=N1 | > 4 mM (inactive)
COC(=O)[C@@]1(C)CCC[C@]2(C)c3ccc(O)c(C(C)C)c3CCC12 (stereo partly drawn) | > 4 mM (inactive)
c1ccc(NCc2nc(-c3ccccc3)no2)cc1 | > 4 mM (inactive)
CCN1C(=O)c2cccc3c(S(N)(=O)=O)ccc1c23 | > 4 mM (inactive)
CC(=O)c1c(O)c(C)c(O)c2c1OC1=CC(=O)C(C(C)=O)C(=O)C12C (stereo not drawn) | > 4 mM (inactive)
COC(=O)[C@]1(C)CC[C@]2(C)CC[C@]3(C)C4=CC=C5C(=CC(=O)C(O)=C5C)[C@]4(C)CC[C@@]3(C)[C@@H]2C1 | > 4 mM (inactive)
Cc1cc(C(=O)NC2=NCCS2)cs1 | > 4 mM (inactive)
CC(=O)Nc1ccc2c(c1)C(=O)N(C1CCCCC1)C2=O | > 4 mM (inactive)
O=C1N=C(N2CCOCC2)S/C1=C\c1cccnc1 | > 4 mM (inactive)

SMILES | Kd
Cn1nc(C(=O)N2CCCC2)c2ccccc2c1=O | > 4 mM (inactive)
Cc1n[nH]c(=S)n1-c1ccc(C(=O)O)cc1 | > 4 mM (inactive)
O=C1C=CC2=C3c4cc(O)c(O)cc4CC3(O)COC2=C1O (stereo not drawn) | > 4 mM (inactive)
O=C1CN(c2ccccc2)CC(=O)N1 | > 4 mM (inactive)
CC(C)Nc1nc2n(c(=O)n1)CCN2C(C)C | > 4 mM (inactive)
COc1cc(OC)c2c(c1Cl)OC1(C2=O)C(O)=CC(=O)CC1C (stereo not drawn) | > 4 mM (inactive)
N[C@@H](C(=O)O)[C@@H](O)[C@H](O)[C@H](O)CO | > 4 mM (inactive)
Nc1ccc2c(c1)C(=O)OC2 | > 4 mM (inactive)
CNC(=O)Nc1cccc(C(F)(F)F)c1 | > 4 mM (inactive)
Cc1cc(C(=O)NCc2cccnc2)cs1 | > 4 mM (inactive)
CC(C)C(=O)NC(=S)N1CCOCC1 | > 4 mM (inactive)
c1ccc(Cc2nnc(-c3ccccc3)o2)cc1 | > 4 mM (inactive)
C=C1CCC2C(CC2(C)C)C(=O)CCC1O (stereo not drawn) | > 4 mM (inactive)
O=C(NCc1cccs1)c1nc2ncccn2n1 | > 4 mM (inactive)
O=C(O)CSCc1c(F)cccc1Cl | > 4 mM (inactive)
O=C1C(=O)N(CNc2ncccn2)c2ccccc21 | > 4 mM (inactive)
CC(O)c1ccc(C(C)O)cc1 (stereo not drawn) | > 4 mM (inactive)
CSc1n[nH]c(NCc2ccccc2)n1 | > 4 mM (inactive)
CC1CCC2(OC1)OC1CC3C4CC[C@H]5C[C@@H](O)CC[C@]5(C)C4CC(=O)[C@]3(C)C1C2C (stereo partly drawn) | > 4 mM (inactive)
Cc1cc(C)c(-c2cc(C(F)(F)F)no2)c(=O)[nH]1 | > 4 mM (inactive)
CC(C)CCCC(C)C1CCC2C3=CC[C@H]4C[C@@H](O)CC[C@]4(C)C3CC[C@@]21C (stereo partly drawn) | > 4 mM (inactive)
CN(C)c1nc(N2CCOCC2)nc(N2CCOCC2)n1 | > 4 mM (inactive)
